One assay addresses T1, EcoLplA (Escherichia coli, UniProt P32099).
T1 construct: gene lplA
T1 sequence (P32099 2-338): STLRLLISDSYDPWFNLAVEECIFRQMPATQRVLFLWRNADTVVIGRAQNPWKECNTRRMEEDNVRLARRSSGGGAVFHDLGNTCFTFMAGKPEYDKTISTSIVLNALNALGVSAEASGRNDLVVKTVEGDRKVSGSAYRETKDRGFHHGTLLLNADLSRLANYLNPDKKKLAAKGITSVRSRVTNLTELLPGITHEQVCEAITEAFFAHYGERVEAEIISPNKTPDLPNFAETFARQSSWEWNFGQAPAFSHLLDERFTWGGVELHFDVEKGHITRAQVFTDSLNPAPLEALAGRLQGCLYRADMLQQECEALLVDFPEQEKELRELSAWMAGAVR
Description: lipoylation of GcvH / GcvH-L, anti-lipoyl immunoblot. The class given is biochemical. The settings on record: co-substrate EcoGcvH, SauGcvH or SauGcvH-L; 1 uM LplA, 2 uM target protein, 30 min, 30 C. (Immunoblotting shows a protein as a band on a membrane.)

In another assay the target is T2, LplA2 (S. pyogenes) (Streptococcus pyogenes, UniProt P0DN72).
T2 construct: gene lplA
The experiment in a line: lipoylation of GcvH-L, anti-lipoyl immunoblot. As to conditions: co-substrate SpyGcvH-L; 1 uM LplA, 2 uM target protein, 30 min, 30 C. The class given is biochemical.

In the next assay the target is T3, SauLplA2 (Staphylococcus aureus, UniProt A0A0H3JX98).
T3 construct: gene SAV0327
T3 sequence (A0A0H3JX98 1-340): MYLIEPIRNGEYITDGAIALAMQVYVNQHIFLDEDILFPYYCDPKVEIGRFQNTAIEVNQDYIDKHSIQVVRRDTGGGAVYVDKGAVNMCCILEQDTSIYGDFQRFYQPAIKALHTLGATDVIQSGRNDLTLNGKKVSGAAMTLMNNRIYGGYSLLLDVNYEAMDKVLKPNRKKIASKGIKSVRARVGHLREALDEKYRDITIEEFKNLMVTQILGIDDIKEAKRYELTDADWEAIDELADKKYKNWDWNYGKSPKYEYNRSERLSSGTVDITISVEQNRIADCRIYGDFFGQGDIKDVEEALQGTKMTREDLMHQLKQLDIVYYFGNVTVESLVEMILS
Description: lipoylation of GcvH-L, anti-lipoyl immunoblot. Type of assay: biochemical. The settings on record: co-substrate SauGcvH-L; 1 uM LplA, 2 uM target protein, 30 min, 30 C.

The target of the next assay is T4, SauLplA1 (Staphylococcus aureus, UniProt A0A0H3JR16).
T4 construct: gene SAV1028
The settings on record: co-substrate SauGcvH or SauGcvH-L; 1 uM LplA, 2 uM target protein, 30 min, 30 C.

The next assay has as its target T5, SpySirTM (Streptococcus pyogenes, UniProt P0DN71).
T5 construct: gene SpyM50869; crystal model residues 3-292 (7-10 not visible)
Description: X-ray crystallography (crystal soak). Type of assay: binding. The settings on record: 1 mM ligand soak, 10 min; 2.03 A; active site; also ADP-ribosyl donor for lipoylated GcvH-L.

Consider two compounds from PMC4518038, “Identification of a Class of Protein ADP-Ribosylating Sirtuins in Microbial Pathogens” (Molecular Cell, 2015).

T4 sequence (A0A0H3JR16 whole entry): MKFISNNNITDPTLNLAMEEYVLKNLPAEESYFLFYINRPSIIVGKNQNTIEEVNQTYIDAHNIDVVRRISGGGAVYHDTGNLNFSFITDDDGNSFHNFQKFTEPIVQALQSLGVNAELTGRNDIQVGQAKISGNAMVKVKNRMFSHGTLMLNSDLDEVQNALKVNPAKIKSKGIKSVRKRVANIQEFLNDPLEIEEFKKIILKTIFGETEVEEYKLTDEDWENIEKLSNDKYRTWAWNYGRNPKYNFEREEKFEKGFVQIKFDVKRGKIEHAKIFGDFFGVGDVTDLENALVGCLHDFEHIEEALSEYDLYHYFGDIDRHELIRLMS
T2 sequence (P0DN72 whole entry): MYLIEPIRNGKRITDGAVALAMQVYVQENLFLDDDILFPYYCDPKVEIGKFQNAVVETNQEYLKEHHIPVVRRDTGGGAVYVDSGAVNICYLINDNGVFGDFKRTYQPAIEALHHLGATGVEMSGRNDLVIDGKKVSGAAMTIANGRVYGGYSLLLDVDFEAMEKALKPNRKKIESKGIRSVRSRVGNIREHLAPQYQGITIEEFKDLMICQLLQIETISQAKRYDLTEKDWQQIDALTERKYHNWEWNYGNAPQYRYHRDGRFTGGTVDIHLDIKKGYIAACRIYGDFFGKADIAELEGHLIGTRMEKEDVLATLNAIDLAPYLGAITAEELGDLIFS
T5 sequence (P0DN71 whole entry, the tested form may be a part): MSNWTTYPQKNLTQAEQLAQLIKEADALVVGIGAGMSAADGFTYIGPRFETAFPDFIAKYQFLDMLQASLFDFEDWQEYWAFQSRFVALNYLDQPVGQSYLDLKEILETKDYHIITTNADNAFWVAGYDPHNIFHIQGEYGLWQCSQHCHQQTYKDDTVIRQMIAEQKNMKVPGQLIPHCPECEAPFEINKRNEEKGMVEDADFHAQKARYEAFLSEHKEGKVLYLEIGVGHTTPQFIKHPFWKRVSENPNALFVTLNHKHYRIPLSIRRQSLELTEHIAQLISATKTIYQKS

For the compound `O=C(O)CCCC[C@@H]1CCSS1` (racemic) [lipoic acid], the “lipoylation of GcvH / GcvH-L, anti-lipoyl immunoblot” value was “EcoLplA readily modifies all three GcvHs” on EcoLplA and “SauLplA1 appears to be indiscriminative toward both S. aureus GcvHs” on SauLplA1. In addition, the “lipoylation of GcvH-L, anti-lipoyl immunoblot” value on LplA2 (S. pyogenes) and at SauLplA2 was “both operonal LplA2s efficiently transferred lipoic acid (LA) onto GcvH-L” in each case.

Regarding `NC(=O)c1ccc[n+]([C@@H]2O[C@H](COP(=O)(O)OP(=O)(O)OC[C@H]3O[C@@H](n4cnc5c(N)ncnc54)[C@H](O)[C@@H]3O)[C@@H](O)[C@H]2O)c1` [NAD^+], the “X-ray crystallography (crystal soak)” value on SpySirTM is reported as “The ligand-SpySirTM complexes reveal that the general mode of NAD^+ binding to SpySirTM is similar”.
